In the supplement of paper PMC10307832:

Columns and labels:
Assay in all cases: relative viability (nuclei count vs DMSO), 5 days (fraction); higher = more cells survive
CAP-232 + Pictilisib = compound: C[C@H]([C@@H](C(=O)N)NC(=O)[C@@H]1CSSC[C@@H](C(=O)N[C@H](C(=O)N[C@@H](C(=O)N[C@H](C(=O)N1)CCCCN)CC2=CNC3=CC=CC=C32)CC4=CC=C(C=C4)O)NC(=O)[C@@H](CC5=CC=CC=C5)N)O [CAP-232] + CS(=O)(=O)N1CCN(Cc2cc3nc(-c4cccc5[nH]ncc45)nc(N4CCOCC4)c3s2)CC1 [Pictilisib] (partner 1 µM)
Method in brief: (§1)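 Each reported value is a median over duplicate plates. It expresses relative viability: treated-well nuclei count divided by vehicle-well nuclei count. Lung cancer cell lines in 1536-well plates were dosed by pin tool a day after seeding, alone with one drug or with a fixed anchor-drug dose plus five library-drug doses (not always all listed) in √10 steps, and nuclei were counted after 5 days.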

CAP-232 + OSI-027 = compound: C[C@H]([C@@H](C(=O)N)NC(=O)[C@@H]1CSSC[C@@H](C(=O)N[C@H](C(=O)N[C@@H](C(=O)N[C@H](C(=O)N1)CCCCN)CC2=CNC3=CC=CC=C32)CC4=CC=C(C=C4)O)NC(=O)[C@@H](CC5=CC=CC=C5)N)O [CAP-232] + COc1cccc2cc(-c3nc([C@H]4CC[C@H](C(=O)O)CC4)n4ncnc(N)c34)[nH]c12 [OSI-027] (partner 0.5 µM)
Method in brief: as §1

CAP-232 + Navitoclax = compound: C[C@H]([C@@H](C(=O)N)NC(=O)[C@@H]1CSSC[C@@H](C(=O)N[C@H](C(=O)N[C@@H](C(=O)N[C@H](C(=O)N1)CCCCN)CC2=CNC3=CC=CC=C32)CC4=CC=C(C=C4)O)NC(=O)[C@@H](CC5=CC=CC=C5)N)O [CAP-232] + CC1(C)CCC(c2ccc(Cl)cc2)=C(CN2CCN(c3ccc(C(=O)NS(=O)(=O)c4ccc(N[C@H](CCN5CCOCC5)CSc5ccccc5)c(S(=O)(=O)C(F)(F)F)c4)cc3)CC2)C1 [Navitoclax] (partner 0.5 µM)
Method in brief: as §1

CAP-232 + Lapatinib = compound: C[C@H]([C@@H](C(=O)N)NC(=O)[C@@H]1CSSC[C@@H](C(=O)N[C@H](C(=O)N[C@@H](C(=O)N[C@H](C(=O)N1)CCCCN)CC2=CNC3=CC=CC=C32)CC4=CC=C(C=C4)O)NC(=O)[C@@H](CC5=CC=CC=C5)N)O [CAP-232] + CS(=O)(=O)CCNCc1ccc(-c2ccc3ncnc(Nc4ccc(OCc5cccc(F)c5)c(Cl)c4)c3c2)o1 [Lapatinib] (partner 2 µM)
Method in brief: as §1

CAP-232 + Bortezomib = compound: C[C@H]([C@@H](C(=O)N)NC(=O)[C@@H]1CSSC[C@@H](C(=O)N[C@H](C(=O)N[C@@H](C(=O)N[C@H](C(=O)N1)CCCCN)CC2=CNC3=CC=CC=C32)CC4=CC=C(C=C4)O)NC(=O)[C@@H](CC5=CC=CC=C5)N)O [CAP-232] + CC(C)C[C@H](NC(=O)[C@H](Cc1ccccc1)NC(=O)c1cnccn1)B(O)O [Bortezomib] (partner 0.002 µM)
Method in brief: as §1

Row | Cell Line | relative viability (CAP-232 + Pictilisib; first compound 0.4 µM) | relative viability (CAP-232 + Pictilisib; first compound 1.265 µM) | relative viability (CAP-232 + Pictilisib; first compound 4 µM) | relative viability (CAP-232 + Pictilisib; first compound 12.65 µM) | relative viability (CAP-232 + OSI-027; first compound 0.4 µM) | relative viability (CAP-232 + OSI-027; first compound 1.265 µM) | relative viability (CAP-232 + OSI-027; first compound 4 µM) | relative viability (CAP-232 + OSI-027; first compound 12.65 µM) | relative viability (CAP-232 + Navitoclax; first compound 0.4 µM) | relative viability (CAP-232 + Navitoclax; first compound 1.265 µM) | relative viability (CAP-232 + Navitoclax; first compound 4 µM) | relative viability (CAP-232 + Navitoclax; first compound 12.65 µM) | relative viability (CAP-232 + Lapatinib; first compound 0.4 µM) | relative viability (CAP-232 + Lapatinib; first compound 1.265 µM) | relative viability (CAP-232 + Lapatinib; first compound 4 µM) | relative viability (CAP-232 + Lapatinib; first compound 12.65 µM) | relative viability (CAP-232 + Bortezomib; first compound 0.4 µM) | relative viability (CAP-232 + Bortezomib; first compound 1.265 µM) | relative viability (CAP-232 + Bortezomib; first compound 4 µM) | relative viability (CAP-232 + Bortezomib; first compound 12.65 µM)
1 | NCI-H1650 | 0.636 | 0.578 | 0.535 | 0.154 | 0.637 | 0.491 | 0.756 | 0.215 | 1.34 | 1.08 | 1.36 | 0.478 | 0.737 | 0.788 | 0.966 | 0.214 | 0.196 | 0.209 | 0.214 | 0.117
2 | EKVX | 0.395 | 0.458 | 0.421 | 0.372 | 0.724 | 0.779 | 0.667 | 0.64 | 1.07 | 1.07 | 0.951 | 0.714 | 0.211 | 0.203 | 0.191 | 0.171 | 1.15 | 0.931 | 0.925 | 0.917
3 | NCI-H1755 | 0.379 | 0.402 | 0.452 | 0.415 | 0.699 | 0.713 | 0.754 | 0.653 | 0.6 | 1.1 | 1.1 | 0.949 | 1.13 | 0.984 | 1.23 | 1.02 | 1.05 | 0.912 | 1.15 | 0.887
4 | NCI-H1792 | 0.26 | 0.323 | 0.3 | 0.204 | 0.996 | 0.76 | 0.875 | 0.832 | 1.2 | 0.638 | 0.656 | 0.452 | 1.48 | 0.917 | 0.95 | 0.856 | 1.13 | 1.01 | 1.27 | 0.845
5 | NCI-H2087 | 0.791 | 0.983 | 0.929 | 0.484 | 0.444 | 0.489 | 0.596 | 0.41 | 1.19 | 1.16 | 1.02 | 0.616 | 1.08 | 1.02 | 1.03 | 0.519 | 1.01 | 0.746 | 1.14 | 0.462
6 | H3255 | 0.443 | 0.491 | 0.553 | 0.366 | 0.567 | 0.538 | 0.63 | 0.811 | 0.629 | 0.426 | 0.556 | 0.242 | 0.317 | 0.226 | 0.219 | 0.0844 | 0.934 | 0.816 | 0.829 | 0.688
7 | NCI-H23 | 0.405 | 0.491 | 0.504 | 0.462 | 0.64 | 0.529 | 0.687 | 0.487 | 0.806 | 0.861 | 0.982 | 0.713 | 0.949 | 1.03 | 1.07 | 0.828 | 1.15 | 1.03 | 1.06 | 0.953
8 | HCC-827 | 0.842 | 1.1 | 0.896 | 1.05 | 0.896 | 0.786 | 0.831 | 0.637 | 0.96 | 1 | 1.03 | 0.993 | 0.224 | 0.175 | 0.177 | 0.177 | 1.19 | 1.06 | 1.03 | 1
9 | HCC-78 | 0.206 | 0.178 | 0.21 | 0.195 | 0.356 | 0.364 | 0.368 | 0.397 | 0.789 | 0.658 | 0.697 | 0.732 | 0.809 | 0.338 | 0.878 | 0.695 | 0.544 | 0.563 | 0.489 | 0.396
10 | NCI-H727 |  | 0.346 | 0.361 | 0.28 | 0.593 | 0.515 | 0.795 | 0.421 |  | 0.431 | 0.377 | 0.347 |  | 0.792 | 0.826 | 0.719 |  | 0.754 | 1.11 | 0.601
11 | NCI-H1975 | 0.262 | 0.261 | 0.313 | 0.191 | 0.856 | 0.646 | 0.91 | 0.487 | 1.24 | 1.1 | 1.28 | 0.853 | 1.03 | 0.867 | 1.11 | 0.583 | 0.336 | 0.351 | 0.416 | 0.255
12 | COR-L23 | 0.653 | 0.734 | 0.784 | 0.579 | 1.15 | 0.759 | 0.85 | 0.495 | 1.02 | 1.1 | 0.977 | 0.572 | 1.3 | 0.961 | 1.08 | 0.845 | 0.959 | 1.04 | 1.15 | 0.732
13 | CAL-12T | 0.383 | 0.381 | 0.435 | 0.322 | 0.611 | 0.556 | 0.585 | 0.298 | 1.05 | 1.21 | 1.3 | 0.94 | 0.528 | 0.612 | 0.644 | 0.736 | 1.21 | 0.939 | 0.91 | 0.477
14 | UMC-11 | 0.775 | 0.796 | 1 | 0.876 | 0.474 | 0.484 | 0.517 | 0.39 | 0.317 | 0.307 | 0.295 | 0.297 | 1.02 | 0.907 | 1.14 | 1.08 | 1.11 | 0.719 | 1.11 | 1.1
15 | NCI-H2126 | 0.501 | 0.468 | 0.482 | 0.525 | 0.743 | 0.76 | 0.846 | 0.648 | 0.864 | 0.804 | 0.843 | 0.851 | 0.762 | 0.694 | 0.895 | 0.797 | 1.22 | 1.08 | 1.19 | 1.13
